Assay results published in US11452731B2, “Method of treating and preventing loss of cognition” (ENDORECHERCHE, INC., priority 2009, dated 2022).

Key:
[1] = 3-month treatment of ovariectomized rats: lumbar spine BMD, total body fat, serum cholesterol, ALP (Example 4, experiment 1); format: in vivo, rat; settings: OVX rats, 3 months; for LUMBAR SPINE BMD / LUMBAR SPINE Prevention of Bone Loss: E2 1 mg/kg, EM-652.HCl 2.5 mg/kg, DHEA 80 mg/kg
Experimental: (§1) Ten to twelve week-old female Sprague-Dawley rats (Crl:CD(SD)Br) (Charles River Laboratory, St-Constant, Canada) weighing approximately 220-270 g at start of treatment were used. The animals were acclimatized to the environmental conditions (temperature: 22±3° C.; humidity: 50±20%; 12-h light-12-h dark cycles, lights on at 07:15 h) for at least 1 week before starting the experiments. The animals were housed individually and were allowed free access to tap water and a pelleted certified rodent feed (Lab Diet 5002, Ralston Purina, St-Louis, Mo.). Experiments were conducted in an animal facility approved by the Canadian Council on Animal Care (CCAC) and the Association for Assessment and Accreditation of Laboratory Animal Care (AAALAC) in accordance with the CCAC Guide for Care and Use of Experimental Animals.
(§2) On day 1 of the study, the animals of the appropriate groups were bilaterally ovariectomized (OVX) under isoflurane anesthesia. The DHEA was applied topically on the dorsal skin as a solution in 50% ethanol-50% propylene glycol while the other tested compounds were administered as suspension in 0.4% methylcellulose by oral gavage. Treatments were initiated on day 2 of the study and were performed once daily during 3 months.
After 3 months (experiment 1) or 26 weeks (experiment 2) of treatment, individual rats under Isoflurane anesthesia had their whole body skeleton and lumbar spine scanned using dual energy x-ray absorptiometry (DEXA; QDR 4500A, Hologic, Waltham, Mass.) and a Regional High Resolution Scan software. The bone mineral density (BMD) of the lumbar spine (vertebrae L2 to L4) and the total body composition (fat percentage) were determined.
After 3 months (experiment 1) or 26 weeks (experiment 2) of treatment, blood samples were collected at the jugular vein from overnight fasted animals (under Isoflurane anesthesia). Samples were processed for serum preparation and frozen at −80° C. until assay. Serum cholesterol levels and alkaline phospatase activity (ALP) were determined using the Boehringer Mannheim Diagnostic Hitachi 911 Analyzer (Boehringer Mannheim Diagnostic Laboratory Systems).

[2] = 5-week treatment of ovariectomized rats with SERMs alone or with DHEA: BMD of lumbar spine, femur, tibia (Example 5); format: in vivo, rat; settings: OVX rats, 5 weeks; for LUMBAR SPINE (L2-L4) BMD / LUMBAR SPINE (L2-L4) Prevention of Bone Loss: SERMs 2.5 mg/kg, DHEA 80 mg/kg
Experimental: as §1
as §2, with “(Ovx)” for “(OVX)”, “the” for “the other”, “SERMs” for “compounds”, “5 weeks.” for “3 months.”
After 5 weeks of treatment, individual rats under Isoflurane anesthesia had their lumbar spine, femur and tibia scanned using dual energy x-ray absorptiometry (DEXA; QDR 4500A, Hologic, Waltham, Mass.) and a Regional High Resolution Scan software. The bone mineral density (BMD) of the lumbar spine (vertebrae L2 to L4), distal femoral metaphysis (DFM) and proximal tibial metaphysis (PTM) were determined.

| Structure (SMILES) | ALP (serum alkaline phosphatase activity) [1] | CHOLESTEROL (serum) [1] | LUMBAR SPINE BMD [1] | LUMBAR SPINE Prevention of Bone Loss [1] | TOTAL FAT ([1]; hydrochloride) | TOTAL FAT ([1]; listed as EM-652•HCl, hydrochloride) | DISTAL FEMORAL METAPHYSIS (DFM) BMD [2] | DISTAL FEMORAL METAPHYSIS (DFM) Prevention of Bone Loss [2] | PROXIMAL TIBIAL METAPHYSIS (PFM) BMD [2] | PROXIMAL TIBIAL METAPHYSIS (PFM) Prevention of Bone Loss [2] | LUMBAR SPINE (L2-L4) BMD [2] | LUMBAR SPINE (L2-L4) Prevention of Bone Loss [2] | TOTAL FAT [1] |
| --- | --- | --- | --- | --- | --- | --- | --- | --- | --- | --- | --- | --- | --- |
| CC1=C(c2ccc(O)cc2)[C@H](c2ccc(OCCN3CCCCC3)cc2)Oc2cc(O)ccc21.Cl [EM-652.HCl, (S)-(+)-7-hydroxy-3-(4′-hydroxyphenyl)-4-methyl-2-(4″-(2′″-piperidinoethoxy)phenyl)-2H-1-benzopyran hydrochloride] | 91 ± 6 IU/L | 0.87 ± 0.04 mmol/L | 0.2374 ± 0.0027 g/cm^2 | 65% | completely prevented | 23.2 ± 1.4 % | 0.3008 ± 0.0055 g/cm^2 | 95% | 0.2806 ± 0.0035 g/cm^2 | 92% | 0.2232 ± 0.0031 g/cm^2 | 86% | – |
| C[C@]12CC[C@H](O)CC1=CC[C@@H]1[C@@H]2CC[C@]2(C)C(=O)CC[C@@H]12 [DHEA, dehydroepiandrosterone] | 224±18 IU/L | 1.59 ± 0.10 mmol/L | 0.2321 ± 0.0034 g/cm^2 | 43% | – | – | 0.2934 ± 0.0046 g/cm^2 | 71% | 0.2672 ± 0.0041 g/cm^2 | 42% | 0.2144 ± 0.0028 g/cm^2 | 44% | 17.3 ± 1.5 % |
